Like-named read-outs stand apart in the source and are kept apart here.
Tests used:
JH2 domain of human Tyk2 = JH2 domain of human Tyk2 (Homo sapiens (Human), UniProt P29597); experiment: JH2 Biochemical Assay (TR-FRET probe displacement); type: binding
Tyk2 = Tyk2 (Homo sapiens (Human), UniProt P29597); experiment: pSTAT4 Cell Assay (MSD, NK92 cells); type: cell-based
JAK2 = JAK2 (Homo sapiens (Human), UniProt O60674); experiment: pSTAT5 Cell Assay (MSD, TF1 cells); type: cell-based; details: IL-3 stimulated
JAK2, sequence (O60674 whole entry): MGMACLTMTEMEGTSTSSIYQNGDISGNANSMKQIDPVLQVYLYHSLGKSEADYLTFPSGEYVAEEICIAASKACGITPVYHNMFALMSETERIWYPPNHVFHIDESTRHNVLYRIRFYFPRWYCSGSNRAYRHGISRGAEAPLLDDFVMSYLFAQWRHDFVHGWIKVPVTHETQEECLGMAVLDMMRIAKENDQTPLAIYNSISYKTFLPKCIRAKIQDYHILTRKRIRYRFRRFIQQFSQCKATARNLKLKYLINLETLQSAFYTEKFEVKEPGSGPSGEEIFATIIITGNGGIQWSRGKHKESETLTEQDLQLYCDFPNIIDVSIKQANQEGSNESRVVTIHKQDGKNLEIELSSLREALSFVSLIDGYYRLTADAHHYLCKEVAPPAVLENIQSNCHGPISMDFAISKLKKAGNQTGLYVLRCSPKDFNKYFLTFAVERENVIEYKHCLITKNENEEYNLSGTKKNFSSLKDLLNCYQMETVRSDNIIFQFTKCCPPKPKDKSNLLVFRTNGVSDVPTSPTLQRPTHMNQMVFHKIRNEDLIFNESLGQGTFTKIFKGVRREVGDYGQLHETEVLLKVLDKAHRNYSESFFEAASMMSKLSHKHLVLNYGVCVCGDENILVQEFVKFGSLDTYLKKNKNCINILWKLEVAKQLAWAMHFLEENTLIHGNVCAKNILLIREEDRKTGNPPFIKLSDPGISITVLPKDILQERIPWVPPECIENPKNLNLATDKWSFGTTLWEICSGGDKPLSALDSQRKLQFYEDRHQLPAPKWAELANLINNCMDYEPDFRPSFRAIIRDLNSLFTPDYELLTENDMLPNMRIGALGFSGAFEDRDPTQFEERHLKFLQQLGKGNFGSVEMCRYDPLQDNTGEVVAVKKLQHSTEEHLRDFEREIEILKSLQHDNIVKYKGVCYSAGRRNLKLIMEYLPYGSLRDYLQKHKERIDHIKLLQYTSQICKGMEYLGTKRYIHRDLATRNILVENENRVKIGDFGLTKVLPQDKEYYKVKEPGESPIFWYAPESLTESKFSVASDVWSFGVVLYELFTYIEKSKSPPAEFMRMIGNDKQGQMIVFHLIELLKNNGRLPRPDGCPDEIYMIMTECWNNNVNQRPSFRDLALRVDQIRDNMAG
How it was run: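 Serum-starved TF1 cells were pretreated with compound for 1 h (10-point four-fold series from 10 μM), then stimulated with 30 ng/mL IL-3 for 15 min. pSTAT5 in lysates was measured by MSD immunoassay. IC50 came from a 4-parameter logistic fit.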

JAK1 = JAK1 (Homo sapiens (Human), UniProt P23458); experiment: pSTAT3 Cell Assay (MSD, TF1 cells); type: cell-based; details: IL-6 stimulated
JAK1, sequence (P23458 whole entry): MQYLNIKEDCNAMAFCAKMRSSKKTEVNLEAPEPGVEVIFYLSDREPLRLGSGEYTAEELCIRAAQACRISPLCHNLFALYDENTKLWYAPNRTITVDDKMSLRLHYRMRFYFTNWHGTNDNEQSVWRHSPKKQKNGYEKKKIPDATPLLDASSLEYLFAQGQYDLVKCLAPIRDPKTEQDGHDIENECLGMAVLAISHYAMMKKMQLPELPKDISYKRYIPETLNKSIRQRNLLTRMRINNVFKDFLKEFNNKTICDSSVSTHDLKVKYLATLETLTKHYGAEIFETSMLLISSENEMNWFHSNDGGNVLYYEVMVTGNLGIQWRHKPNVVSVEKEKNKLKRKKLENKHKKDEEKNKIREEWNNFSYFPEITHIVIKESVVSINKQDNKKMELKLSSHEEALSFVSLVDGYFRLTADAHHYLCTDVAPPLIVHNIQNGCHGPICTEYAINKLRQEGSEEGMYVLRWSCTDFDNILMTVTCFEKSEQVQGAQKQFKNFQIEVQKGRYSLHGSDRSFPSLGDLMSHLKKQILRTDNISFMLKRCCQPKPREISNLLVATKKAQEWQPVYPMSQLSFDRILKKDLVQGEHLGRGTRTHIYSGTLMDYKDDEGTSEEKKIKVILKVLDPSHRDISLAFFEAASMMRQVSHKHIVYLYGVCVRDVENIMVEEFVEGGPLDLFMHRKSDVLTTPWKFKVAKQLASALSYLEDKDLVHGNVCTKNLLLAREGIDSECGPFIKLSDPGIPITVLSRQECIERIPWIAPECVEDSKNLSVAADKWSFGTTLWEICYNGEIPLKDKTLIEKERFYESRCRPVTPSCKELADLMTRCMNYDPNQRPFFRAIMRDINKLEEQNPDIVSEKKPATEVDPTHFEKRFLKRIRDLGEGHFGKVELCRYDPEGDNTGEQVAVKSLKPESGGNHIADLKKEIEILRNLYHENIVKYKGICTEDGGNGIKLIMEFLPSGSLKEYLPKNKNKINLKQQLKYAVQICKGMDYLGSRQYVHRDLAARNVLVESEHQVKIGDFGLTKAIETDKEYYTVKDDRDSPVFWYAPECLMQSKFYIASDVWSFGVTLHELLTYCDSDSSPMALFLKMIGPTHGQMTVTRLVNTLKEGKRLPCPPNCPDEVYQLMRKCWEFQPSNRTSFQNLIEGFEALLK
How it was run: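 IC50 values reflect 4-parameter logistic fits of normalized pSTAT3 signal, measured by MSD in lysed TF1 cells. Cells were serum-starved and treated with compound for 1 h (top concentration 10 μM) before a 15 min IL-6 challenge.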

[1] = JH2 domain of human Tyk2, TR-FRET probe displacement
[2] = TR-FRET probe displacement, JH2 domain

JH2 domain of human Tyk2, sequence (P29597 575-876): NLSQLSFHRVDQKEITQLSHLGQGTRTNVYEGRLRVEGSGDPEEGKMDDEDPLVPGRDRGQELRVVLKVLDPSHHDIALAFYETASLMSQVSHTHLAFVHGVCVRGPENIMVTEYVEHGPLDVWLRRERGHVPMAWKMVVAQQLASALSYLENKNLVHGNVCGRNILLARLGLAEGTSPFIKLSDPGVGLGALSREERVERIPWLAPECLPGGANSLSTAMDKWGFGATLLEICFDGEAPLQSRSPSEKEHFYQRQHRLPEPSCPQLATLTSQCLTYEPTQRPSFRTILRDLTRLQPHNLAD
Tyk2, sequence (P29597 whole entry): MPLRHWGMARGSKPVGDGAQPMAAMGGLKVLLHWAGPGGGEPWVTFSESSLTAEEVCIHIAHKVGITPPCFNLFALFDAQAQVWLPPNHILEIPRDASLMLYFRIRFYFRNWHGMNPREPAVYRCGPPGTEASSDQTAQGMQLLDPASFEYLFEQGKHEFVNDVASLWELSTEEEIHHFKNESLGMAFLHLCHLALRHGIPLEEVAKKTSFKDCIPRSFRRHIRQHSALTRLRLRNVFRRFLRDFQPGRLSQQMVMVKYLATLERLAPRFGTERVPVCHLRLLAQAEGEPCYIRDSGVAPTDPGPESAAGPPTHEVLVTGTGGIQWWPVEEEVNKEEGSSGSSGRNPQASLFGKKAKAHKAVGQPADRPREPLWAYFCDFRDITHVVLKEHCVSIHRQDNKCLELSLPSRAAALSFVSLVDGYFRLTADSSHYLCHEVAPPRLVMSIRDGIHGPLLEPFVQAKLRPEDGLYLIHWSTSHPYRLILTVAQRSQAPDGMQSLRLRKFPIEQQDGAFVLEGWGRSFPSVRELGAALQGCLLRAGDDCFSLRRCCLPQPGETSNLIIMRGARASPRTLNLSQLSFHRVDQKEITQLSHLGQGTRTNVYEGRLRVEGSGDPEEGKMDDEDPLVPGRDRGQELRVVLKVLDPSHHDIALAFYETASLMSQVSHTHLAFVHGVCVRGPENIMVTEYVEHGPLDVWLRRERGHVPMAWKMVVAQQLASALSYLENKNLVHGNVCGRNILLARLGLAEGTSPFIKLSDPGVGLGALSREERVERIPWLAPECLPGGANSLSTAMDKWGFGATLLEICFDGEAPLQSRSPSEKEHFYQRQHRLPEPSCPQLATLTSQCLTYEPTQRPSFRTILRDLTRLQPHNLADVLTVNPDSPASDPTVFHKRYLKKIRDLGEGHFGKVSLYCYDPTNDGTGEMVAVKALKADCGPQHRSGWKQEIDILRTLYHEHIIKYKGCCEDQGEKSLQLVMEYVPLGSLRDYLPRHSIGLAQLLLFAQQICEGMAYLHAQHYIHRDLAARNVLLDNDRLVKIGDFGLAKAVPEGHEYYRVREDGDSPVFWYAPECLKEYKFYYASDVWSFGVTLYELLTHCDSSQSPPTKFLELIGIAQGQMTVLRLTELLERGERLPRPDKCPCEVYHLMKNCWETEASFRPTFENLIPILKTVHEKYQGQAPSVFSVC

Structure (SMILES)	IC50 (JH2 domain of human Tyk2; [1])	IC50 (Tyk2; MSD)	IC50 (JAK2; MSD)	IC50 (JAK1; MSD)	IC50 (JH2 domain of human Tyk2; [2])	IC50 (Tyk2)	IC50 (JAK2)	IC50 (JAK1)
COCc1cccc(-c2cnc(NC(C)=O)cc2Nc2cc(C)nc(C(C)(F)F)n2)n1 [Example 636, N-(4′-((2-(1,1-difluoroethyl)-6-methylpyrimidin-4-yl)amino)-6-(methoxymethyl)-[2,3′-bipyridin]-6′-yl)acetamide]	≤ 10 nM	≤ 10 nM	≥ 1000 nM	≥ 1000 nM				
CC(=O)Nc1cc(Nc2cc(C)nc(C(C)(F)F)n2)c(-c2ccc(CN(C)C)cn2)cn1 [Example 648, N-(4′-((2-(1,1-difluoroethyl)-6-methylpyrimidin-4-yl)amino)-5-((dimethylamino)methyl)-[2,3′-bipyridin]-6′-yl)acetamide]	≤ 10 nM	≤ 10 nM	≥ 1000 nM	≥ 1000 nM				
CC(=O)Nc1cc(Nc2cc(C)nc(C(C)(F)F)n2)c(-c2ccc(N(C)C)cn2)cn1 [Example 652, N-(4′-((2-(1,1-difluoroethyl)-6-methylpyrimidin-4-yl)amino)-5-(dimethylamino)-[2,3′-bipyridin]-6′-yl)acetamide]	≤ 10 nM	≤ 10 nM	≥ 1000 nM	≥ 1000 nM				
CC(=O)Nc1cc(Nc2cc(C)nc(C(C)(F)F)n2)c(-c2ncc(C#N)cn2)cn1 [Example 655, N-(5-(5-cyanopyrimidin-2-yl)-4-((2-(1,1-difluoroethyl)-6-methylpyrimidin-4-yl)amino)pyridin-2-yl)acetamide]	≤ 10 nM	10 to 100 nM	≥ 1000 nM	≥ 1000 nM				
CC(=O)Nc1cc(Nc2cc(C)nc(C(C)(F)F)n2)c(-c2ncc(OC(F)F)cn2)cn1 [Example 660, N-(4-((2-(1,1-difluoroethyl)-6-methylpyrimidin-4-yl)amino)-5-(5-(difluoromethoxy)pyrimidin-2-yl)pyridin-2-yl)acetamide]	≤ 10 nM	≤ 10 nM	≥ 1000 nM	≥ 1000 nM				
COCc1nccc(-c2cnc(NC(C)=O)cc2Nc2cc(C)nc(C(C)(F)F)n2)n1 [Example 661, N-(4-((2-(1,1-difluoroethyl)-6-methylpyrimidin-4-yl)amino)-5-(2-(methoxymethyl)pyrimidin-4-yl)pyridin-2-yl)acetamide]	≤ 10 nM	≤ 10 nM	≥ 1000 nM	≥ 1000 nM				
CC(=O)Nc1cc(Nc2cc(C)nc(C(C)(F)F)n2)c(-c2ncccn2)cn1 [Example 668, N-(4-((2-(1,1-difluoroethyl)-6-methylpyrimidin-4-yl)amino)-5-(pyrimidin-2-yl)pyridin-2-yl)acetamide]	≤ 10 nM	≤ 10 nM	≥ 1000 nM	≥ 1000 nM				
COc1ccc(-c2cnc(NC(C)=O)cc2Nc2cc(C)nc(C(C)(F)F)n2)nn1 [Example 676, N-(4-((2-(1,1-difluoroethyl)-6-methylpyrimidin-4-yl)amino)-5-(6-methoxypyridazin-3-yl)pyridin-2-yl)acetamide]	≤ 10 nM	≤ 10 nM	≥ 1000 nM	≥ 1000 nM				
CC(=O)Nc1cc(Nc2cc(C)nc(C(C)(F)F)n2)c(-c2cn3ccnc3cn2)cn1 [Example 681, N-(4-((2-(1,1-difluoroethyl)-6-methylpyrimidin-4-yl)amino)-5-(imidazo[1,2-a]pyrazin-6-yl)pyridin-2-yl)acetamide]	≤ 10 nM	≤ 10 nM	≥ 1000 nM	≥ 1000 nM				
CC(=O)Nc1cc(Nc2ccnc(C(C)(F)F)n2)c(-c2cn(C)c(C#N)n2)cn1 [Example 707, N-(5-(2-cyanO1-methyl-1H-imidazol-4-yl)-4-((2-(1,1-difluoroethyl)pyrimidin-4-yl)amino)pyridin-2-yl)acetamide]	≤ 10 nM	≤ 10 nM	≥ 1000 nM	≥ 1000 nM				
CC(=O)Nc1cc(Nc2ccnc(C(C)(F)F)n2)c(-c2cnn(C(C)C)n2)cn1 [Example 708, N-(4-((2-(1,1-difluoroethyl)pyrimidin-4-yl)amino)-5-(2-isopropyl-2H-1,2,3-triazol-4-yl)pyridin-2-yl)acetamide]	≤ 10 nM	≤ 10 nM	≥ 1000 nM	≥ 1000 nM				
CC(=O)Nc1cc(Nc2ccnc(C(C)(F)F)n2)c(-c2nnc(C(C)(C)C)s2)cn1 [Example 715, N-(5-(5-(tert-butyl)-1,3,4-thiadiazol-2-yl)-4-((2-(1,1-difluoroethyl)pyrimidin-4-yl)amino)pyridin-2-yl)acetamide]	≤ 10 nM	≤ 10 nM	≥ 1000 nM	≥ 1000 nM				
CCc1cc(Nc2cc(NC(C)=O)ncc2-c2ncccn2)nc(C(C)(F)F)n1 [Example 719, N-(4-((2-(1,1-difluoroethyl)-6-ethylpyrimidin-4-yl)amino)-5-(pyrimidin-2-yl)pyridin-2-yl)acetamide]	≤ 10 nM	≤ 10 nM	≥ 1000 nM	≥ 1000 nM				
CC(=O)Nc1cc(Nc2ccnc(C(C)(F)F)n2)ccn1 [Example 724, N-(4-((2-(1,1-difluoroethyl)pyrimidin-4-yl)amino)pyridin-2-yl)acetamide]	10 to 100 nM	≥ 1000 nM	≥ 1000 nM	≥ 1000 nM				
COCc1cc(-c2cnc(NC(C)=O)cc2Nc2cc(C)nc(C(C)(F)F)n2)nn1C [Example 757, N-(4-((2-(1,1-difluoroethyl)-6-methylpyrimidin-4-yl)amino)-5-(5-(methoxymethyl)-1-methyl-1H-pyrazol-3-yl)pyridin-2-yl)acetamide]					≤ 10 nM	≤ 10 nM	≥ 1000 nM	100 to 1000 nM
CCc1cc(Nc2cc(NC(C)=O)ncc2-c2ccncn2)nc(C(C)(F)F)n1 [Example 799, N-(4-((2-(1,1-difluoroethyl)-6-ethylpyrimidin-4-yl)amino)-5-(pyrimidin-4-yl)pyridin-2-yl)acetamide]					≤ 10 nM	≤ 10 nM	≥ 1000 nM	≥ 1000 nM
CC(=O)Nc1cc(Nc2ccnc(C(C)(F)F)n2)c(-c2ncc(OC(F)F)cn2)cn1 [Example 825, N-(4-((2-(1,1-difluoroethyl)pyrimidin-4-yl)amino)-5-(5-(difluoromethoxy)pyrimidin-2-yl)pyridin-2-yl)acetamide]					≤ 10 nM	10 to 100 nM	≥ 1000 nM	≥ 1000 nM
CC(=O)Nc1cc(Nc2ccnc(C(C)(F)F)n2)c(-c2ccc(OC(F)F)cn2)cn1 [Example 826, N-(4′-((2-(1,1-difluoroethyl)pyrimidin-4-yl)amino)-5-(difluoromethoxy)-[2,3′-bipyridin]-6′-yl)acetamide]					≤ 10 nM	≤ 10 nM	≥ 1000 nM	≥ 1000 nM
COCc1cnc(-c2cnc(NC(C)=O)cc2Nc2cc(C)nc(C(C)(F)F)n2)cn1 [Example 834, N-(4-((2-(1,1-difluoroethyl)-6-methylpyrimidin-4-yl)amino)-5-(5-(methoxymethyl)pyrazin-2-yl)pyridin-2-yl)acetamide]					≤ 10 nM	≤ 10 nM	≥ 1000 nM	≥ 1000 nM
COc1ccc(-c2cnc(NC(C)=O)cc2Nc2ccnc(C(C)(C)F)n2)nn1 [Example 835, N-(4-((2-(2-fluoropropan-2-yl)pyrimidin-4-yl)amino)-5-(6-methoxypyridazin-3-yl)pyridin-2-yl)acetamide]					≤ 10 nM	≤ 10 nM	≥ 1000 nM	≥ 1000 nM
CCc1cc(Nc2cc(NC(C)=O)ncc2-c2cnc(COC)cn2)nc(C(C)(F)F)n1 [Example 836, N-(4-((2-(1,1-difluoroethyl)-6-ethylpyrimidin-4-yl)amino)-5-(5-(methoxymethyl)pyrazin-2-yl)pyridin-2-yl)acetamide]					≤ 10 nM	≤ 10 nM	≥ 1000 nM	≥ 1000 nM
CCc1cc(Nc2cc(NC(C)=O)ncc2-c2ncc(C3COCCO3)cn2)nc(C(C)(F)F)n1 (stereo not shown) [Example 840, N-(5-(5-(1,4-dioxan-2-yl)pyrimidin-2-yl)-4-((2-(1,1-difluoroethyl)-6-ethylpyrimidin-4-yl)amino)pyridin-2-yl)acetamide]					≤ 10 nM	≤ 10 nM	≥ 1000 nM	≥ 1000 nM
COCc1ccc(-c2cnc(NC(C)=O)cc2Nc2ccnc(C(C)(F)F)n2)nc1 [Example 851, N-(4′-((2-(1,1-difluoroethyl)pyrimidin-4-yl)amino)-5-(methoxymethyl)-[2,3′-bipyridin]-6′-yl)acetamide]					≤ 10 nM	≤ 10 nM	≥ 1000 nM	≥ 1000 nM
CC(=O)Nc1cc(Nc2ccnc(C(C)(F)F)n2)c(-c2cnc(C(C)(C)O)cn2)cn1 [Example 853, N-(4-((2-(1,1-difluoroethyl)pyrimidin-4-yl)amino)-5-(5-(2-hydroxypropan-2-yl)pyrazin-2-yl)pyridin-2-yl)acetamide]					≤ 10 nM	10 to 100 nM	≥ 1000 nM	≥ 1000 nM
CCc1cc(Nc2cc(NC(N)=O)ncc2-c2cnccn2)nc(C(C)(F)F)n1 [Example 920]					≤ 10 nM	≤ 10 nM	≥ 1000 nM	≥ 1000 nM
